Publication PMC10095301, “To Target or Not to Target Schistosoma mansoni Cyclic Nucleotide Phosphodiesterase 4A?” (International Journal of Molecular Sciences, 2023)
Where “and” joins values, the source holds several entries; their conditions need not be identical. Identical values can stand only once. Like-named read-outs stand apart in the source and are kept apart here. Marks after values point to notes of the source that are not given here.

Legend:
S. mansoni [1] = test: In vitro anti-S. mansoni assay: oviposition (egg count); type: cell-based, Schistosoma mansoni; details: eggs of days 4 and 5
Procedure: (§1) For these experiments, roflumilast and NPD-0001 were freshly prepared in different concentrations (100 µM, 50 µM, 25 µM 10 µM and 5 µM) in RPMI-1640 medium and tested in 12-well tissue culture plates for S. mansoni survival and ovipositing capacity. To assess the effects of roflumilast and NPD-0001 on egg production in vitro, we used 12-well tissue culture plates containing 6–8 worms, including at least 1 or 2 worm couples and fresh RPMI-1640 medium containing the indicated concentration of the test compound. Worms were incubated overnight in a CO2 incubator at 37 °C. On the 2nd day, worms were washed 3 times with normal saline, fresh medium was added, and the incubation was continued. Each concentration was tested in duplicate wells, and on the 4th day, eggs were counted and discarded, and the medium was changed. On day 5 (the end of the observation period), newly deposited eggs were counted. The final egg number is the total count of days 4 and 5 for each concentration tested. Statistical analysis was done with Student’s unpaired, 2-tailed t-test.

S. mansoni [2] = test: In vitro anti-S. mansoni assay: adult worm killing; type: cell-based, Schistosoma mansoni; details: for %Worm Killing (Female) / %Worm Killing (Male): day 5
Procedure: Infected Syrian golden hamsters (Mesocrietus auratus) bred and maintained at the Schistosome Biology Supply Center (SBSC) of Theodor Bilharz Research Institute (TBRI), Giza, Egypt, were used. Animals were housed under controlled biological conditions. Animal experiments were conducted in accordance with the Guide for Care and Use of Laboratory Animals and were approved by the Institutional Review Board (IRB) of TBRI. Seven weeks post-infection, hamsters were anesthetized using pentobarbital in a dose of 200 mg/kg body weight and 2 hamsters were sacrificed to obtain the required number of worms. The animals were then perfused using a normal saline solution (0.9% NaCl), and worms were collected. Six to 8 worms per well were placed in a 12-well tissue culture plate, taking care to guarantee 1 to 2 worm pairs/well and fresh RPMI-1640 medium (plus glutamine, 20% newborn calf serum and antibiotics [streptomycin, penicillin and gentamicin]), containing the indicated concentration of the test compound, was added. Worms were incubated overnight in a CO2 incubator at 37 °C. On the 2nd day, worms were examined by microscopy, washed 3 times with normal saline, a fresh medium was added, and the incubation was continued. On the 3rd day, worm motility was observed, and on the 4th day, the medium was again changed. On day 5 (end of the observation period), worms were microscopically examined for their motility and appearance. Each concentration was tested in duplicate wells, and the final recording of percent worm mortality was determined as the number of dead worms [contracted and opaque] divided by the total number of worms ×100).
as §1

[3] = Cytotoxicity on MRC-5 cells; type: cell-based; details: human, MRC-5SV40 lung fibroblasts, read-out: MRC-5 pIC50 (converted)
Description: Table 4 Effect of SmPDE4A inhibitors on S. mansoni survival and oviposition. | column: MRC-5 pIC50

SmPDE4A_FL = SmPDE4A_FL (Schistosoma mansoni, UniProt A0ACM8RGL1); test: biochemical; details: read-out: SmPDE4A_FL inhibition at 10 µM
Procedure: (§2) Enzyme velocity was plotted against substrate concentration, and Km values were determined using GraphPad Prism software version 8, analyzing the Michaelis–Menten kinetics of the enzyme.
(§3) Inhibitors were initially tested at 10 µM (triplicate measurements/assay, n = 3). In follow-up experiments, dose-response curves were made in the range 100 µM–10 pM (triplicate measurements/assay, n = 3). […] The reaction was terminated by the addition of 5 µL Lonza Stop Buffer supplemented with 10 µM pan-PDE4 inhibitor NPD-0001. Subsequently, 5 µL of Lonza Detection reagent (diluted to 80% with reaction buffer) was added, and the reaction was incubated for 10 min at 300 rpm. Luminescence was read with a Victor3 luminometer using a 0.1 s/well program. […] The Cheng-Prussoff equation, embedded in the GraphPad Prism software, was used to convert IC50 values to pKi values.

SmPDE4A_CD = SmPDE4A_CD (Schistosoma mansoni, UniProt A0ACM8RGL1); test: biochemical; details: for inhibition at 10 µM: read-out: SmPDE4A_CD Inhibition at 10 µM (%)
Procedure: as §2, §3

S. mansoni [4] = system: S. mansoni; parameters: method as in PMID 31711973; details: data from Botros et al. and this study, cited from earlier work
SmPDE4A = molecular target: SmPDE4A; parameters: method as in PMID 28704396; details: estimated value; cited from earlier work
S. mansoni [5] = system: S. mansoni; parameters: method as in PMID 31711973; details: data from Botros et al. and this study, cited from earlier work; remark: listed apart in the source
[6] = SmPDE4A_CD pKi, mean ± SEM, n ≥ 3, cAMP at 2 × Km (6 µM), Cheng-Prusoff
[7] = read-out: SmPDE4A_CD pKi (converted)

COc1ccc(C2=NN(C3CCCCCC3)C(=O)[C@H]3CC=CC[C@@H]23)cc1OCCCCOc1ccc(-c2nnn[nH]2)cc1 [NPD-0001]
% Oviposition Reduction (S. mansoni [1]; 5 µM): 0%
% Oviposition Reduction (S. mansoni [1]; 10 µM): 0%
% Oviposition Reduction (S. mansoni [1]; 25 µM): 13%
% Oviposition Reduction (S. mansoni [1]; 50 µM): 23%
% Oviposition Reduction (S. mansoni [1]; 100 µM): 100 * %
%Worm Killing (Female) (S. mansoni [2]; 5 µM): 0%
%Worm Killing (Male) (S. mansoni [2]; 5 µM): 0%
%Worm Killing (Female) (S. mansoni [2]; 10 µM): 0%
%Worm Killing (Male) (S. mansoni [2]; 10 µM): 0%
%Worm Killing (Female) (S. mansoni [2]; 25 µM): 0%
%Worm Killing (Male) (S. mansoni [2]; 25 µM): 0%
%Worm Killing (Female) (S. mansoni [2]; 50 µM): 0%
%Worm Killing (Male) (S. mansoni [2]; 50 µM): 0%
%Worm Killing (Male) (S. mansoni [2]; 100 µM): 63%
IC50 [3]: 7940 nM
inhibition at 10 µM (SmPDE4A_FL): > 50%
IC50 (SmPDE4A_CD): 1580 nM
Ki (SmPDE4A_CD; [6]): 126 nM
inhibition at 10 µM (SmPDE4A_CD): > 50%

COc1ccc(C2=NN(C3CCN(C(=O)CN4C(=O)CCC4=O)CC3)C(=O)C3CC=CCC23)cc1OC (stereo not drawn) [NPD-0007]
inhibition at 10 µM (SmPDE4A_FL; 10 µM compound, toolbox screen): > 50%
inhibition at 10 µM (SmPDE4A_CD; 10 µM compound): > 50%
Ki (SmPDE4A_CD; [7]): 501 nM
IC50 (SmPDE4A_CD; representative dose-response curves, Figure 4B, read-out: pIC50 inhibition of enzymatic activity of SmPDE4A_CD (converted)): 3980 nM

COc1ccc(C(=O)Nc2c(Cl)cncc2Cl)cc1OC [NPD-0446]
Ki (SmPDE4A_CD; [7]): 3980 nM

COc1ccc(C(=O)Nc2c(Cl)cncc2Cl)cc1OCc1ccccc1 [NPD-0546]
inhibition at 10 µM (SmPDE4A_CD; 10 µM compound): 8%

COc1ccc(C(=O)Nc2c(Cl)cncc2Cl)cc1 [NPD-0548]
inhibition at 10 µM (SmPDE4A_CD; 10 µM compound): 16%

COc1ccc(C(=O)Nc2c(Cl)cncc2Cl)cc1Cl [NPD-1180]
inhibition at 10 µM (SmPDE4A_CD; 10 µM compound): 9%

O=C(Nc1ccncc1Cl)c1ccc(OC(F)F)c(OCC2CC2)c1 [NPD-1204]
Ki (SmPDE4A_CD; [7]): 251 nM

O=C(Nc1cnccc1Cl)c1ccc(OC(F)F)c(OCC2CC2)c1 [NPD-1205]
inhibition at 10 µM (SmPDE4A_CD; 10 µM compound): 21%
reduction in SmPDE4A inhibitory potency (fold) (SmPDE4A_CD; relative to roflumilast): three-fold reduction in potency

O=C(Nc1c(Cl)c[n+]([O-])cc1Cl)c1ccc(OC(F)F)c(OCC2CC2)c1 [NPD-2980, roflumilast N-oxide]
Ki (SmPDE4A_CD; [6]): 63.1 nM

COc1ccc(NC(=O)c2ccc(OC(F)F)c(OCC3CC3)c2)cc1Cl [NPD-3000]
inhibition at 10 µM (SmPDE4A_CD; 10 µM compound): 15%

O=C(Nc1cccc(Cl)c1)c1ccc(OC(F)F)c(OCC2CC2)c1 [NPD-3075]
inhibition at 10 µM (SmPDE4A_CD; 10 µM compound): 4%

O=C(Nc1ccncc1)c1ccc(OC(F)F)c(OCC2CC2)c1 [NPD-3076]
inhibition at 10 µM (SmPDE4A_CD; 10 µM compound): 46%

O=C(Nc1ccccc1Cl)c1ccc(OC(F)F)c(OCC2CC2)c1 [NPD-3080]
Ki (SmPDE4A_CD; [7]): 2000 nM
reduction in SmPDE4A inhibitory potency (fold) (SmPDE4A_CD; relative to NPD-1204): 10 fold

O=C(Nc1c(Cl)cncc1Cl)c1ccc(F)c(OCC2CC2)c1 [NPD-3093]
Ki (SmPDE4A_CD; [7]): 2510 nM

COc1ccc(C(=O)Nc2c(Cl)cncc2Cl)cc1OCC1CC1 [NPD-3094]
Ki (SmPDE4A_CD; [7]): 398 nM

O=C(Nc1c(Cl)cncc1Cl)c1ccc(Cl)c(OCC2CC2)c1 [NPD-3096]
Ki (SmPDE4A_CD; [7]): 794 nM

COc1ccc(C(=O)Nc2c(Cl)cncc2Cl)cc1OC1CCCC1 [piclamilast]
inhibition at 10 µM (SmPDE4A_FL): > 50%
IC50 (SmPDE4A_CD): 3160 nM
Ki (SmPDE4A_CD; [6]): 316 nM and 63.1 nM
inhibition at 10 µM (SmPDE4A_CD): > 50%

O=C(C1CCCCC1)N1CC(=O)N2CCc3ccccc3C2C1 (stereo not drawn) [praziquantel]
% Oviposition Reduction (S. mansoni [1]; 5 µM): 100%
worm killing (S. mansoni [2]; 5 µM (lowest concentration tested), sex not specified): 100%

O=C(Nc1c(Cl)cncc1Cl)c1ccc(OC(F)F)c(OCC2CC2)c1 [roflumilast]
IC50 [3]: > 63100 nM
%Worm Killing (Female) (S. mansoni [4]; 5 µM): 0%
%Worm Killing (Male) (S. mansoni [4]; 5 µM): 0%
%Worm Killing (Female) (S. mansoni [4]; 10 µM): 0%
%Worm Killing (Male) (S. mansoni [4]; 10 µM): 0%
%Worm Killing (Female) (S. mansoni [4]; 25 µM): 0%
%Worm Killing (Male) (S. mansoni [4]; 25 µM): 0%
%Worm Killing (Female) (S. mansoni [4]; 50 µM): 0%
%Worm Killing (Male) (S. mansoni [4]; 50 µM): 0%
%Worm Killing (Female) (S. mansoni [4]; 100 µM): 0%
%Worm Killing (Male) (S. mansoni [4]; 100 µM): 0%
SmPDE4A pKi (estimated) (SmPDE4A): 7.8
% Oviposition Reduction (S. mansoni [5]; 5 µM): 35 * %
% Oviposition Reduction (S. mansoni [5]; 10 µM): 39 * %
% Oviposition Reduction (S. mansoni [5]; 25 µM): 42 * %
% Oviposition Reduction (S. mansoni [5]; 50 µM): 49 * %
% Oviposition Reduction (S. mansoni [5]; 100 µM): 52 * %
inhibition at 10 µM (SmPDE4A_FL): > 50%
IC50 (SmPDE4A_CD): 631 nM
Ki (SmPDE4A_CD; [6]): 79.4 nM
inhibition at 10 µM (SmPDE4A_CD): > 50%
